In the oligonucleotide strings, read from the 5' end, every base follows the letter of its sugar. An asterisk marks phosphorothioate; unmarked linkages are phosphodiester. Other units and linkages are bracketed, terminal groups are in braces. A string of capitals states the bases alone. e = 2'-O-(2-methoxyethyl) (MOE); [5mC] = 5-methylcytosine; d = 2'-deoxy (DNA)
tested on: human Factor 7 mRNA; assay: Antisense inhibition of human Factor 7 mRNA in HepB3 cells, lipofectin, 50 nM, real-time RT-PCR; type: cell-based; settings: Example 1; HepB3 cells, lipofectin, 50 nM, ~24 h, relative to untreated control cells
Procedure: Antisense oligonucleotides targeted to a Factor 7 nucleic acid were tested for their effects on Factor 7 mRNA in vitro. Cultured HepB3 cells at a density of 4,000 cells per well were transfected using lipofectin reagent with 50 nM antisense oligonucleotide. After a treatment period of approximately 24 hours, RNA was isolated from the cells and Factor 7 mRNA levels were measured by real-time RT-PCR, as described herein. Factor 7 mRNA levels were adjusted according to total RNA content as measured by RIBOGREEN®. Results are presented as percent inhibition of Factor 7, relative to untreated control cells.
(§1) Antisense oligonucleotides targeted to a Factor 7 nucleic acid were designed and tested for their effects on Factor 7 mRNA in vitro. Certain antisense oligonucleotides from Table 3 were also retested for their effects on Factor 7 mRNA in vitro. Cultured HepB3 cells at a density of 4,000 cells per well were transfected using lipofectin reagent with 50 nM antisense oligonucleotide. After a treatment period of approximately 24 hours, RNA was isolated from the cells and Factor 7 mRNA levels were measured by real-time RT-PCR, as described herein. Human Factor 7 primer probe set RTS 2927 was used to measure mRNA levels. Factor 7 mRNA levels were adjusted according to total RNA content as measured by RIBOGREEN®. Results are presented as percent inhibition of Factor 7, relative to untreated control.
as §1, with “tested” for “tested for their effects on Factor 7 mRNA in vitro. Certain antisense oligonucleotides from Table 3 were also retested”
These gapmers were designed by creating gapmers shifted slightly upstream and downstream (i.e. “microwalk”) of the original gapmers from Table 7. Gapmers were also created with various motifs, e.g. 5-10-5 MOE, 3-14-3 MOE, and 2-13-5 MOE. These gapmers were tested in vitro. Cultured HepB3 cells at a density of 4,000 cells per well were transfected using lipofectin reagent with 50 nM antisense oligonucleotide. After a treatment period of approximately 24 hours, RNA was isolated from the cells and Factor 7 mRNA levels were measured by real-time RT-PCR. Factor 7 mRNA levels were adjusted according to total RNA content, as measured by RIBOGREEN®. Results are presented as percent inhibition of Factor 7, relative to untreated control cells.

| Substance | % Inhibition (human Factor 7 mRNA) |
| --- | --- |
| 407612 (antisense eA*eG*eA*eT*e[5mC]*dA*dG*d[5mC]*dT*dG*dG*dT*d[5mC]*dA*dT*e[5mC]*e[5mC]*eT*eT*eG) [compound 407612] | 82% |
| 407659 (antisense eG*eA*eT*eG*eG*d[5mC]*dA*dT*d[5mC]*dG*dA*dG*dT*d[5mC]*d[5mC]*eA*e[5mC]*eT*e[5mC]*eT) [compound 407659] | 55% |
| 407945 (antisense eA*eA*eT*e[5mC]*eA*dT*dG*dG*dG*d[5mC]*dA*dA*d[5mC]*d[5mC]*d[5mC]*eA*eG*eT*eG*eG) [compound 407945] | 56% |
| 407896 (antisense e[5mC]*eG*eT*eG*eT*dG*dG*dT*d[5mC]*dA*d[5mC]*dT*dG*d[5mC]*dA*eG*eT*eA*e[5mC]*eT) [compound 407896] | 73% |
| 407607 (antisense eT*eG*eG*eA*eG*d[5mC]*dT*dG*dG*dT*d[5mC]*d[5mC]*dT*dT*dG*e[5mC]*eA*eG*eG*eA) [compound 407607] | 76% |

same assay, conditions: Example 4; HepB3 cells, lipofectin, 50 nM, ~24 h, relative to untreated control

| Substance | % Inhibition (human Factor 7 mRNA) |
| --- | --- |
| 422125 (antisense e[5mC]*eT*eG*eA*eG*d[5mC]*dG*d[5mC]*dG*dG*dA*dA*dG*dA*dA*eG*eG*eG*eA*e[5mC]) [compound 422125] | 8% |
| 422119 (antisense eG*e[5mC]*eG*eG*eA*dA*dG*dA*dA*dG*dG*dG*dA*d[5mC]*dG*eG*eA*eA*eG*eG) [compound 422119] | 39% |

same assay, conditions: HepB3 cells, lipofectin, 50 nM antisense oligonucleotide, approximately 24 hours, primer probe set RTS 2927, relative to untreated control

| Substance | % Inhibition of human Factor 7 mRNA levels |
| --- | --- |
| 416456 (antisense e[5mC]*eT*eG*e[5mC]*eG*d[5mC]*d[5mC]*dA*d[5mC]*d[5mC]*d[5mC]*dG*d[5mC]*d[5mC]*dG*eG*e[5mC]*eT*e[5mC]*eT) [compound 416456] | 58% |
| 416448 (antisense eT*eT*eT*eT*eT*d[5mC]*d[5mC]*dA*d[5mC]*dA*dT*dG*dG*dA*dT*eA*eT*eT*e[5mC]*eA) [compound 416448] | 34% |
| 416457 (antisense eG*eG*eA*eT*eG*dA*dT*dG*dA*d[5mC]*d[5mC]*dT*dG*d[5mC]*dG*e[5mC]*e[5mC]*eA*e[5mC]*e[5mC]) [compound 416457] | 48% |
| 416428 (antisense e[5mC]*eT*eG*eG*eG*dT*dT*dA*d[5mC]*dG*dA*dA*dG*dA*d[5mC]*eT*eG*e[5mC]*eA*eG) [compound 416428] | 11% |
| 416521 (antisense e[5mC]*eA*e[5mC]*e[5mC]*e[5mC]*d[5mC]*dA*d[5mC]*d[5mC]*dA*dG*dG*dT*dT*dG*eT*eG*e[5mC]*eA*e[5mC]) [compound 416521] | 36% |

same assay, conditions: HepB3 cells; gapmers (5-10-5, 3-14-3, 2-13-5 MOE) targeted to nucleobases 4868 to 4899 of SEQ ID NO: 1

| Substance | % Inhibition of human Factor 7 mRNA levels |
| --- | --- |
| 422214 (antisense eT*eT*e[5mC]*dT*dG*d[5mC]*dA*dG*dG*dA*dG*d[5mC]*dG*dG*d[5mC]*d[5mC]*dT*eA*eA*eA) [compound 422214] | 60% |

same assay, conditions: HepB3 cells; gapmers targeted to nucleobases 11830 to 11869 of SEQ ID NO: 1 (Table 9)

| Substance | % Inhibition of human Factor 7 mRNA levels |
| --- | --- |
| 422238 (antisense eA*e[5mC]*dA*dA*dT*dG*dG*dT*d[5mC]*dA*dG*dG*dG*d[5mC]*dT*eG*eG*eT*eT*eT) [compound 422238] | 64% |
| 422232 (antisense eG*eT*d[5mC]*dA*dG*dG*dG*d[5mC]*dT*dG*dG*dT*dT*dT*dT*eG*eG*eA*eG*eG) [compound 422232] | 41% |
| 422156 (antisense eG*eG*eT*d[5mC]*dA*dG*dG*dG*d[5mC]*dT*dG*dG*dT*dT*dT*dT*dG*eG*eA*eG) [compound 422156] | 38% |

same assay, conditions: HepB3 cells; gapmers targeted to nucleobases 13760 to 13789 of SEQ ID NO: 1 (Table 10)

| Substance | % Inhibition of human Factor 7 mRNA levels |
| --- | --- |
| 416456 (antisense e[5mC]*eT*eG*e[5mC]*eG*d[5mC]*d[5mC]*dA*d[5mC]*d[5mC]*d[5mC]*dG*d[5mC]*d[5mC]*dG*eG*e[5mC]*eT*e[5mC]*eT) [compound 416456] | 50% |
| 422185 (antisense e[5mC]*eT*eG*d[5mC]*dG*d[5mC]*d[5mC]*dA*d[5mC]*d[5mC]*d[5mC]*dG*d[5mC]*d[5mC]*dG*dG*d[5mC]*eT*e[5mC]*eT) [compound 422185] | 48% |
